Assay results taken from ChEMBL document CHEMBL5321196, “Fluorescent and theranostic probes for imaging nicotinamide phosphoribosyl transferase (NAMPT)” (Eur J Med Chem, 2023).
pIC50: −log10 of the molar value.

Tests used:
[1] = biological target: T1, Nicotinamide phosphoribosyltransferase (Homo sapiens, UniProt P43490); experiment: Inhibition of NAMPT in human A2780 cells measured at 24 hrs
[2] = biological target: T1, Nicotinamide phosphoribosyltransferase; experiment: Inhibition of NAMPT in human A2780 cells measured at 6 hrs
[3] = biological target: T1, Nicotinamide phosphoribosyltransferase; experiment: Inhibition of NAMPT in human A2780 cells measured at 48 hrs

T1 sequence (P43490 whole entry): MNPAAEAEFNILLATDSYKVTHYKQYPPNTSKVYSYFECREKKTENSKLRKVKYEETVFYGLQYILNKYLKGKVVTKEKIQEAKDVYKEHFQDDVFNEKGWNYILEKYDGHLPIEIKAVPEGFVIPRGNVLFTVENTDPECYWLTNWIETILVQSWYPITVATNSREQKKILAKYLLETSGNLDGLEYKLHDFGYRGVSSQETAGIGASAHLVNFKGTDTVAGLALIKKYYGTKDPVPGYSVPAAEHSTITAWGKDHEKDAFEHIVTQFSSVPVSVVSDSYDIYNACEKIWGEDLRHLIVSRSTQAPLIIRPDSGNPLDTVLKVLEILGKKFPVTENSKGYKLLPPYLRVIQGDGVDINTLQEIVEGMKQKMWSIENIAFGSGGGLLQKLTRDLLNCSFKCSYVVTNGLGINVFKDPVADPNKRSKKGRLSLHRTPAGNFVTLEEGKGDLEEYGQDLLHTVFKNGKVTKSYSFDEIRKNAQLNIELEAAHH

- pIC50 [1]: 5.14
- pIC50 [2]: < 5.00
- pIC50 [3]: 5.39
SMILES: O=S(=O)(c1ccc(NC(=S)NCc2cccnc2)cc1)N1CCNCC1
